Eleven compounds from ChEMBL document CHEMBL4229420, “ROCK inhibitors 2. Improving potency, selectivity and solubility through the application of rationally designed solubilizing groups” (Bioorg Med Chem Lett, 2018) can be followed below.

Values after ≈ are worked out from the molar mass of the structure shown.

A short description of the first series: Solubility of the compound in pH 7.4 phosphate buffer. In kind it is physicochemical. As to conditions: buffer.
What is called solubility is the concentration that dissolves in the medium under given conditions. Compound `CN1CCN(CCCOc2cccc(CC(=O)Nc3nc(-c4ccncc4)cs3)c2)CC1` returned a solubility of over 200 µM.
Take `O=C(Cc1cccc(OCCCC2CCNCC2)c1)Nc1nc(-c2ccncc2)cs1`: the solubility was over 200 µM.

The same series, now with this note: phosphate buffer, read-out: solubility.
For the compound `COc1cccc(CC(=O)Nc2nc(-c3ccncc3)cs2)c1`, the solubility is 22 µM (≈ 7.16 µg/mL).
The same measure, in the same setting: the result for `CN1CCN(CCOc2cccc(CC(=O)Nc3nc(-c4ccncc4)cs3)c2)CC1` reads over 200 µM; that for `CN1CCC(CCCOc2cccc(CC(=O)Nc3nc(-c4ccncc4)cs3)c2)CC1`, over 200 µM.
Same read-out and setting: for `O=C(Cc1cccc(OCCN2CCOCC2)c1)Nc1nc(-c2ccncc2)cs1` the value was over 200 µM; for `O=C(Cc1cccc(OCCCN2CCOCC2)c1)Nc1nc(-c2ccncc2)cs1`, over 200 µM.
Consider `O=C(Cc1cccc(OCCCN2CCCCC2)c1)Nc1nc(-c2ccncc2)cs1`, for which the solubility is over 200 µM.
On the same count and under the same terms, for `O=C(Cc1cccc(OCCN2CCNCC2)c1)Nc1nc(-c2ccncc2)cs1` the value was over 200 µM.
Turning to `O=C(Cc1cccc(OCCCN2CCNCC2)c1)Nc1nc(-c2ccncc2)cs1`, the solubility was over 200 µM.
In the case of `O=C(Cc1cccc(OCCN2CCCCC2)c1)Nc1nc(-c2ccncc2)cs1`, the solubility was over 200 µM.
